# Measurements published in patent publication US9757393B2 (priority 2015, dated 2017).
# Tests used:
# PPARα mRNA = assay: Semiquantitative RT-PCR, liver tissue: PPARα; format: in vivo, C57BL/6J mice; details: HFD-fed mice
# Method: (§1) Experimental Animals: the experiments are conducted under the guidelines of the Institutional Animal Care and Use Committee of Central Taiwan University of Science and Technology. As previously described, four-week-old male C57BL/6J mice (n=63) is purchased from the National Laboratory Animal Breeding and Research Center, Ministry of Science and Technology. After 1-week of acclimatization, mice are designed to initiate the study, and the study lasts for 12 weeks. […] The CON group and high-fat control (HF) group are given with vehicle only. The low-fat diet consisted of fat 10%, whereas the high-fat diet (HFD) consisted of fat 45% (of total energy, % kcal). The compositions of the experimental diets are shown as described. At the end of the study, food is derived from the animals (from 10 p.m. to 10 a.m.). On the next day, the mice are sacrificed, and blood and tissue are collected for analysis. Livers, skeletal muscles, and white adipose tissues (WATs) (including epididymal, mesenteric and retroperitoneal WAT) are excised and weighed, and then immediately stored in a freezer at −80° C. Heparin (30 units/mL) (Sigma) is added to blood samples. Plasma samples are collected by centrifugation at 1600 g for 15 min at 4° C. within 30 min, and plasma is obtained for insulin and leptin level analysis.
# The experiment is performed as in a previously described protocol. Total RNA from the liver tissue is isolated with a Trizol reagent (Molecular Research Center, Inc., Cincinnati, Ohio, USA) according to the manufacturer's directions. Total RNA (1 μg) is reverse transcribed to cDNA with 5 μL of Moloney murine leukemia virus reverse transcriptase (Epicenter, Madison, Wis., USA) as a previously described protocol. […] The relative density of the band is evaluated using AlphaDigiDoc 1201 software (Alpha Innotech Co., San Leandro, Calif., USA). All of the measured PCR products are normalized to the amount of cDNA of GAPDH in each sample.
# HFD-fed C57BL/6J mice [1] = assay: Histopathology examination of epididymal WAT and liver tissue; format: in vivo; details: for ballooning degeneration of hepatocyte: liver tissue; for average area of adipocytes (epididymal WAT): oral gavage daily for 4 weeks
# Method: as §1
# A portion of the collected epididymal WAT and liver tissue is fixed with formalin (200 g/kg) neutral buffered solution and embedded in paraffin. Sections (8 μm) are cut and stained with hematoxylin and eosin. A microscope (Leica, DM2500) and Leica Digital camera (DFC-425-C) are used for microscopic examination and images taken, respectively.
# HFD-fed C57BL/6J mice [2] = assay: Body weight, food intake and tissue weight in HFD-fed mice; format: in vivo; details: for Absolute Tissue Weight BAT / Absolute Tissue Weight EWAT / Absolute Tissue Weight Liver / Absolute Tissue Weight MWAT / Absolute Tissue Weight RWAT / Absolute Tissue Weight Skeletal muscle / weight gain: oral gavage daily for 4 weeks; for weight of visceral fat: vs HF group
# Method: as §1
# Body Weight, Food Intake and Tissue Weight. Throughout the embodiment, body weight and food intake are daily recorded at the same time. Body weight gain is defined as the difference between 1 day and the next day. The pellet food is weighed and placed in a cage food container. After 24 h, the remaining food is weighed and the crumbs are collected as much as possible. Based on the difference between 1 day and the next day, the daily food intake is calculated.
# HFD-fed C57BL/6J mice [3] = assay: Blood glucose, HbA1c, blood lipids, insulin and leptin levels in HFD-fed mice; format: in vivo; details: for Blood Profiles FFA / Blood Profiles HDL-C / Blood Profiles HbA1c / Blood Profiles LDL-C: oral gavage daily for 4 weeks; for blood glucose levels / blood insulin levels / blood leptin levels / blood total cholesterol (TC) levels / blood triglyceride (TG) level: vs HF group
# Method: as §1
# Blood Glucose and HbA1c Levels. Blood samples (0.8 mL) are collected from the retro-orbital sinuses of fasting mice, and glucose level is measured by the glucose oxidase method (model 1500; Sidekick Glucose Analyzer; YSI Inc., Yellow Springs, Ohio, USA). Percent HbA1c is detected with a Hemoglobin A1c kit (BioSystems S.A., Barcelona, Spain). Plasma triglycerides (TG), total cholesterol (TC), free fatty acids (FFA), high-density lipoprotein cholesterol (HDL-C), and low density lipoprotein cholesterol (LDL-C) are determined using commercial assay kits (Triglycerides-E test, Cholesterol-E test, and FFA-C test, Wako Pure Chemical, Osaka, Japan; HDL-C-test and LDL-C-test, Roche Diagnostics GmbH, Indianapolis, USA) according to their instructions. A mouse insulin ELISA kit (Sibayagi, Gunma, Japan) and mouse leptin ELISA kit (Morinaga, Yokohama, Japan) are used to measure blood insulin and leptin levels, respectively.
compound,measurement,setting,value
"CC(C)[C@@H](C)C=C[C@@H](C)[C@H]1CC[C@H]2C3=CCC4C[C@@H](O)CC[C@]4(C)C3=CC[C@]12C (stereo partly drawn) [ergostatrien-3β-ol, ergosta-7,9(11),22-trien-3β-ol]",mRNA level of PPARα,PPARα mRNA; 10 mg/kg/day,increase
same,mRNA level of PPARα,PPARα mRNA; 20 mg/kg/day,increase
same,mRNA level of PPARα,PPARα mRNA; 40 mg/kg/day,increase
same,ballooning degeneration of hepatocyte,HFD-fed C57BL/6J mice [1]; 10 mg/kg/day,decreases
same,ballooning degeneration of hepatocyte,HFD-fed C57BL/6J mice [1]; 20 mg/kg/day,decreases
same,ballooning degeneration of hepatocyte,HFD-fed C57BL/6J mice [1]; 40 mg/kg/day,decreases
same,average area of adipocytes (epididymal WAT),HFD-fed C57BL/6J mice [1]; 10 mg/kg/day,4204.0±131.5 μm2
same,average area of adipocytes (epididymal WAT),HFD-fed C57BL/6J mice [1]; 20 mg/kg/day,3535.7±340.2 μm2
same,average area of adipocytes (epididymal WAT),HFD-fed C57BL/6J mice [1]; 40 mg/kg/day,3458.9±30.7 μm2
same,food intake (consumption of high-fat diet),HFD-fed C57BL/6J mice [2]; all treated groups compared with HF mice,similarly
same,Absolute Tissue Weight BAT,HFD-fed C57BL/6J mice [2]; 10 mg/kg/day,0.160 ± 0.007 g
same,Absolute Tissue Weight EWAT,HFD-fed C57BL/6J mice [2]; 10 mg/kg/day,0.853 ± 0.031 g
same,Absolute Tissue Weight Liver,HFD-fed C57BL/6J mice [2]; 10 mg/kg/day,0.813 ± 0.025 g
same,Absolute Tissue Weight MWAT,HFD-fed C57BL/6J mice [2]; 10 mg/kg/day,0.276 ± 0.032 g
same,Absolute Tissue Weight RWAT,HFD-fed C57BL/6J mice [2]; 10 mg/kg/day,0.281 ± 0.016 g
same,Absolute Tissue Weight Skeletal muscle,HFD-fed C57BL/6J mice [2]; 10 mg/kg/day,0.781 ± 0.034 g
same,weight gain,HFD-fed C57BL/6J mice [2]; 10 mg/kg/day,1.30 ± 0.39 g
same,Absolute Tissue Weight BAT,HFD-fed C57BL/6J mice [2]; 20 mg/kg/day,0.143 ± 0.016 g
same,Absolute Tissue Weight EWAT,HFD-fed C57BL/6J mice [2]; 20 mg/kg/day,0.774 ± 0.057 g
same,Absolute Tissue Weight Liver,HFD-fed C57BL/6J mice [2]; 20 mg/kg/day,0.819 ± 0.025 g
same,Absolute Tissue Weight MWAT,HFD-fed C57BL/6J mice [2]; 20 mg/kg/day,0.276 ± 0.032 g
same,Absolute Tissue Weight RWAT,HFD-fed C57BL/6J mice [2]; 20 mg/kg/day,0.283 ± 0.025 g
same,Absolute Tissue Weight Skeletal muscle,HFD-fed C57BL/6J mice [2]; 20 mg/kg/day,1.167 ± 0.045 g
same,weight gain,HFD-fed C57BL/6J mice [2]; 20 mg/kg/day,1.13 ± 0.20 g
same,Absolute Tissue Weight BAT,HFD-fed C57BL/6J mice [2]; 40 mg/kg/day,0.144 ± 0.013 g
same,Absolute Tissue Weight EWAT,HFD-fed C57BL/6J mice [2]; 40 mg/kg/day,0.736 ± 0.070 g
same,Absolute Tissue Weight Liver,HFD-fed C57BL/6J mice [2]; 40 mg/kg/day,0.796 ± 0.041 g
same,Absolute Tissue Weight MWAT,HFD-fed C57BL/6J mice [2]; 40 mg/kg/day,0.244 ± 0.024 g
same,Absolute Tissue Weight RWAT,HFD-fed C57BL/6J mice [2]; 40 mg/kg/day,0.243 ± 0.041 g
same,Absolute Tissue Weight Skeletal muscle,HFD-fed C57BL/6J mice [2]; 40 mg/kg/day,1.351 ± 0.153 g
same,weight gain,HFD-fed C57BL/6J mice [2]; 40 mg/kg/day,0.37 ± 0.38 g
same,weight of visceral fat,HFD-fed C57BL/6J mice [2]; 10 mg/kg/day,decrease
same,weight of visceral fat,HFD-fed C57BL/6J mice [2]; 20 mg/kg/day,decrease
same,weight of visceral fat,HFD-fed C57BL/6J mice [2]; 40 mg/kg/day,decrease
same,levels of TG (circulating),HFD-fed C57BL/6J mice [3]; dose not specified,moderate reduction
same,Blood Profiles FFA,HFD-fed C57BL/6J mice [3]; 10 mg/kg/day,1.06 ± 0.10 meq/L
same,Blood Profiles HDL-C,HFD-fed C57BL/6J mice [3]; 10 mg/kg/day,82.2 ± 3.9 mg/dL
same,Blood Profiles HbA1c,HFD-fed C57BL/6J mice [3]; 10 mg/kg/day,5.8 ± 0.7 %
same,Blood Profiles FFA,HFD-fed C57BL/6J mice [3]; 20 mg/kg/day,1.05 ± 0.09 meq/L
same,Blood Profiles HDL-C,HFD-fed C57BL/6J mice [3]; 20 mg/kg/day,83.0 ± 2.0 mg/dL
same,Blood Profiles HbA1c,HFD-fed C57BL/6J mice [3]; 20 mg/kg/day,5.7 ± 0.5 %
same,Blood Profiles LDL-C,HFD-fed C57BL/6J mice [3]; 20 mg/kg/day,103.7 ± 10.8 mg/dL
same,Blood Profiles FFA,HFD-fed C57BL/6J mice [3]; 40 mg/kg/day,1.03 ± 0.05 meq/L
same,Blood Profiles HDL-C,HFD-fed C57BL/6J mice [3]; 40 mg/kg/day,83.8 ± 1.6 mg/dL
same,Blood Profiles HbA1c,HFD-fed C57BL/6J mice [3]; 40 mg/kg/day,5.1 ± 0.3 %
same,Blood Profiles LDL-C,HFD-fed C57BL/6J mice [3]; 40 mg/kg/day,86.8 ± 11.5 mg/dL
same,blood glucose levels,HFD-fed C57BL/6J mice [3]; 10 mg/kg/day,significantly reduce
same,blood insulin levels,HFD-fed C57BL/6J mice [3]; 10 mg/kg/day,decrease
same,blood leptin levels,HFD-fed C57BL/6J mice [3]; 10 mg/kg/day,decrease
same,blood total cholesterol (TC) levels,HFD-fed C57BL/6J mice [3]; 10 mg/kg/day,lower
same,blood triglyceride (TG) level,HFD-fed C57BL/6J mice [3]; 10 mg/kg/day,decrease
same,blood glucose levels,HFD-fed C57BL/6J mice [3]; 20 mg/kg/day,significantly reduce
same,blood insulin levels,HFD-fed C57BL/6J mice [3]; 20 mg/kg/day,decrease
same,blood leptin levels,HFD-fed C57BL/6J mice [3]; 20 mg/kg/day,decrease
same,blood total cholesterol (TC) levels,HFD-fed C57BL/6J mice [3]; 20 mg/kg/day,lower
same,blood triglyceride (TG) level,HFD-fed C57BL/6J mice [3]; 20 mg/kg/day,decrease
same,blood glucose levels,HFD-fed C57BL/6J mice [3]; 40 mg/kg/day,significantly reduce
same,blood insulin levels,HFD-fed C57BL/6J mice [3]; 40 mg/kg/day,decrease
same,blood leptin levels,HFD-fed C57BL/6J mice [3]; 40 mg/kg/day,decrease
same,blood total cholesterol (TC) levels,HFD-fed C57BL/6J mice [3]; 40 mg/kg/day,lower
same,blood triglyceride (TG) level,HFD-fed C57BL/6J mice [3]; 40 mg/kg/day,decrease
